The target of the test is T1, hP2X3 (human Purinergic P2X receptors subtype 3), clone B (Homo sapiens, UniProt P56373).
T1 sequence (P56373 1-397): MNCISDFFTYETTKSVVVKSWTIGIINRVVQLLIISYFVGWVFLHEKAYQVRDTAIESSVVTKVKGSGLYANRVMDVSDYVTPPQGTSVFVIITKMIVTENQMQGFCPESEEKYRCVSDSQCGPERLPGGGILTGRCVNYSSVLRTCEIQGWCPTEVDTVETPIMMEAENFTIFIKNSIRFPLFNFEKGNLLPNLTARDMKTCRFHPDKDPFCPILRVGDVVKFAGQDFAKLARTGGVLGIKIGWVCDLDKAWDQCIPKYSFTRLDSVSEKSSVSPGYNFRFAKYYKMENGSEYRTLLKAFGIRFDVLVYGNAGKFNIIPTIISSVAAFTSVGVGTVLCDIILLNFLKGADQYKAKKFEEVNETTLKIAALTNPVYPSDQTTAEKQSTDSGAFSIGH
As to the kind of experiment: hP2X3 FLIPR calcium (Fluo-4) antagonist assay, clone B. Particulars: Human P2X3 FLIPR Clone B IC50 (nM), RLE cells expressing hP2X3 clone B (NM_002559); agonist 500 nM α,β-methylene-ATP.
For `CC(=O)N1CCN(c2nc(N[C@@H]3CCC[C@H]3c3ccc(Cl)cc3)c3c(n2)C(=O)N(C(C)C)C3)CC1` (racemic) [Example 33, 2-(4-acetylpiperazin-1-yl)-4-{[trans-2-(4-chlorophenyl)cyclopentyl]amino}-6-isopropyl-5,6-dihydro-7H-pyrrolo[3,4-d]pyrimidin-7-one], the IC50 came to 580 nM. `CC(=O)N1CCN(c2nc(NC(C)C3COc4ccccc4O3)c3c(n2)C(=O)N(C(C)C)C3)CC1` (single isomer, unassigned) [Example 178, 2-(4-acetylpiperazin-1-yl)-4-(1-(2,3-dihydrobenzo[b][1,4]dioxin-2-yl)ethylamino)-6-isopropyl-5H-pyrrolo[3,4-d]pyrimidin-7(6H)-one]: the concentration for half-maximal inhibition (IC50) is 970 nM. In the case of `CC(=O)N1CCN(c2nc(NC(C)C3COc4ccccc4O3)c3c(n2)C(=O)N(C(C)C)C3)CC1` (single isomer, unassigned) [Example 179, 2-(4-acetylpiperazin-1-yl)-4-(1-(2,3-dihydrobenzo[b][1,4]dioxin-2-yl)ethylamino)-6-isopropyl-5H-pyrrolo[3,4-d]pyrimidin-7(6H)-one], the concentration for half-maximal inhibition (IC50) was determined as 190 nM. With `CC(=O)N1CCN(c2nc3c(c(N4CCCC4c4ccc5ncccc5c4)n2)CN(C(C)C)C3=O)CC1` (single isomer, unassigned) [Example 284, 4-(4-acetylpiperazin-1-yl)-8-propan-2-yl-2-(2-quinolin-6-ylpyrrolidin-1-yl)-3,5,8-triazabicyclo[4.3.0]nona-1,3,5-trien-7-one], the IC50 is 9900 nM. As to `CC(=O)N1CCN(c2nc3c(c(N4CCCC4c4ccc5ncccc5c4)n2)CN(C(C)C)C3=O)CC1` (single isomer, unassigned) [Example 285, 4-(4-acetylpiperazin-1-yl)-8-propan-2-yl-2-(2-quinolin-6-ylpyrrolidin-1-yl)-3,5,8-triazabicyclo[4.3.0]nona-1,3,5-trien-7-one], the IC50 was 100 nM.

As for `COc1ccc(CC2CCCN2c2nc(N3CCN(C(C)=O)CC3)nc3c2CN(C(C)C)C3=O)cc1` (single isomer, unassigned) [Example 288, 2-(4-acetylpiperazin-1-yl)-6-isopropyl-4-[2-[(4-methoxyphenyl)methyl]pyrrolidin-1-yl]-5H-pyrrolo[3,4-d]pyrimidin-7-one], the 50% inhibitory concentration (IC50) stood at 1400 nM. As for `CCC(C)N1Cc2c(NCc3cc4ccccc4cn3)nc(N3CCN(C(C)=O)CC3)nc2C1=O` (single isomer, unassigned; (+)) [Example 310, (+)-2-(4-acetylpiperazin-1-yl)-4-(3-isoquinolylmethylamino)-6-sec-butyl-5H-pyrrolo[3,4-d]pyrimidin-7-one], the IC50 stood at 29 nM. With `CCC(C)N1Cc2c(NCc3cnc4ccccc4c3)nc(N3CCN(C(C)=O)CC3)nc2C1=O` (single isomer, unassigned; (-)) [Example 309, (−)-2-(4-acetylpiperazin-1-yl)-4-(3-quinolylmethylamino)-6-sec-butyl-5H-pyrrolo[3,4-d]pyrimidin-7-one] the figure was 42 nM; with `CC(C)N1Cc2c(NCc3cnc4ccccc4c3)nc(N3CCN4CCCC4C3)nc2C1=O` (stereo in doubt) [Example 141, (R)-2-(Hexahydro-pyrrolo[1,2-a]pyrazin-2-yl)-6-isopropyl-4-[(quinolin-3-ylmethyl)-amino]-5,6-dihydro-pyrrolo[3,4-d]pyrimidin-7-one], 7600 nM; with `CC(=O)N1CCN(c2nc(NC3CCCc4ccccc43)c3c(n2)C(=O)N(C(C)C)C3)CC1` (centres unmarked) [Example 1, 2-(4-acetylpiperazin-1-yl)-6-isopropyl-4-(1,2,3,4-tetrahydronaphthalen-1-ylamino)-5,6-dihydro-7H-pyrrolo[3,4-d]pyrimidin-7-one], 4800 nM. Consider `CCOC(=O)C(CNc1nc(N2CCN(C(C)=O)CC2)nc2c1CN(C(C)C)C2=O)c1ccccc1` (centres unmarked) [Example 2, ethyl 3-{[2-(4-acetylpiperazin-1-yl)-6-isopropyl-7-oxo-6,7-dihydro-5H-pyrrolo[3,4-d]pyrimidin-4-yl]amino}-2-phenylpropanoate], for which the half-maximal inhibitory concentration (IC50) was found to be 1900 nM. As for `CC(=O)N1CCN(c2nc3c(c(N(Cc4ccccc4)CC4CCCO4)n2)CN(C(C)C)C3=O)CC1` (centres unmarked) [Example 3, 2-(4-acetylpiperazin-1-yl)-4-[benzyl(tetrahydrofuran-2-ylmethyl)amino]-6-isopropyl-5,6-dihydro-7H-pyrrolo[3,4-d]pyrimidin-7-one], the concentration for half-maximal inhibition (IC50) turned out to be 4600 nM. For `CC(=O)N1CCN(c2nc3c(c(N(Cc4ccc(F)cc4)C4CCCC4)n2)CN(C(C)C)C3=O)CC1` [Example 4, 2-(4-acetylpiperazin-1-yl)-4-[cyclopentyl(4-fluorobenzyl)amino]-6-isopropyl-5,6-dihydro-7H-pyrrolo[3,4-d]pyrimidin-7-one], the concentration for half-maximal inhibition (IC50) was 800 nM. Take `CC(=O)N1CCN(c2nc(NC(C)c3ccc(C(C)(C)C)cc3)c3c(n2)C(=O)N(C(C)C)C3)CC1` (centres unmarked) [Example 5, 2-(4-acetylpiperazin-1-yl)-4-{[1-(4-tert-butylphenyl)ethyl]amino}-6-isopropyl-5,6-dihydro-7H-pyrrolo[3,4-d]pyrimidin-7-one]: the IC50 came out at 440 nM. For the molecule `CC(=O)N1CCN(c2nc(NC(C)c3ccc(CC(C)C)cc3)c3c(n2)C(=O)N(C(C)C)C3)CC1` (centres unmarked) [Example 6, 2-(4-acetylpiperazin-1-yl)-4-{[1-(4-isobutylphenyl)ethyl]amino}-6-isopropyl-5,6-dihydro-7H-pyrrolo[3,4-d]pyrimidin-7-one], the half-maximal inhibitory concentration (IC50) worked out at 160 nM.

For `Cc1ccc(C(Nc2nc(NCCN(C)C)nc3c2CN(C(C)C)C3=O)c2ccccc2)cc1` (centres unmarked) [Example 7, 2-{[2-(dimethylamino)ethyl]amino}-6-isopropyl-4-{[(4-methylphenyl)(phenyl)methyl]amino}-5,6-dihydro-7H-pyrrolo[3,4-d]pyrimidin-7-one], the half-maximal inhibitory concentration (IC50) stood at 85 nM. As for `CC(C)N1Cc2c(NC(c3ccccc3)c3ccc(Cl)cc3)nc(NCCN(C)C)nc2C1=O` (centres unmarked) [Example 9, 4-{[(4-chlorophenyl)(phenyl)methyl]amino}-2-{[2-(dimethylamino)ethyl]amino}-6-isopropyl-5,6-dihydro-7H-pyrrolo[3,4-d]pyrimidin-7-one], the half-inhibitory concentration (IC50) is 91 nM. With `CC(=O)N1CCN(c2nc(NC(c3ccc(C(C)C)cc3)C(C)C)c3c(n2)C(=O)N(C(C)C)C3)CC1` (centres unmarked) [Example 10, 2-(4-acetylpiperazin-1-yl)-6-isopropyl-4-{[1-(4-isopropylphenyl)-2-methylpropyl]amino}-5,6-dihydro-7H-pyrrolo[3,4-d]pyrimidin-7-one] the figure was 1200 nM; with `CC(=O)N1CCN(c2nc(NC(C)Cc3ccc(F)cc3)c3c(n2)C(=O)N(C(C)C)C3)CC1` (centres unmarked) [Example 12, 2-(4-acetylpiperazin-1-yl)-4-{[2-(4-fluorophenyl)-1-methylethyl]amino}-6-isopropyl-5,6-dihydro-7H-pyrrolo[3,4-d]pyrimidin-7-one], 3900 nM. On to `CC(=O)N1CCN(c2nc(NC(C)c3nc(-c4ccccc4)no3)c3c(n2)C(=O)N(C(C)C)C3)CC1` (centres unmarked) [Example 13, 2-(4-acetylpiperazin-1-yl)-6-isopropyl-4-{[1-(3-phenyl-1,2,4-oxadiazol-5-yl)ethyl]amino}-5,6-dihydro-7H-pyrrolo[3,4-d]pyrimidin-7-one], for which the IC50 turned out to be 220 nM. Regarding `CC(C)N1Cc2c(NC(c3ccc(F)cc3)c3ccc(F)cc3)nc(NCCN(C)C)nc2C1=O` [Example 17, 4-{[bis(4-fluorophenyl)methyl]amino}-2-{[2-(dimethylamino)ethyl]amino}-6-isopropyl-5,6-dihydro-7H-pyrrolo[3,4-d]pyrimidin-7-one], the IC50 was found to be 70 nM. As for `CCN1CCN(c2nc(NC(c3ccccc3)c3ccc(Cl)cc3)c3c(n2)C(=O)N(C(C)C)C3)CC1` (centres unmarked) [Example 18, 4-{[(4-chlorophenyl)(phenyl)methyl]amino}-2-(4-ethylpiperazin-1-yl)-6-isopropyl-5,6-dihydro-7H-pyrrolo[3,4-d]pyrimidin-7-one], the concentration for half-maximal inhibition (IC50) was found to be 180 nM. With `CC(C)N1Cc2c(NC(c3ccccc3)c3ccc(Cl)cc3)nc(N(C)CCN(C)C)nc2C1=O` (centres unmarked) [Example 19, 4-{[(4-chlorophenyl)(phenyl)methyl]amino}-2-[[2-(dimethylamino)ethyl](methyl)amino]-6-isopropyl-5,6-dihydro-7H-pyrrolo[3,4-d]pyrimidin-7-one], the IC50 worked out at 93 nM. As to `CC(C)N1Cc2c(NC(c3ccccc3)c3ccc(Cl)cc3)nc(N3CC4CC3CN4C)nc2C1=O` (centres unmarked) [Example 20, 4-{[(4-chlorophenyl)(phenyl)methyl]amino}-6-isopropyl-2-(5-methyl-2,5-diazabicyclo[2.2.1]hept-2-yl)-5,6-dihydro-7H-pyrrolo[3,4-d]pyrimidin-7-one], the IC50 is 100 nM. As to `CC(C)N1Cc2c(NC3c4cccnc4CCc4c(F)cccc43)nc(NCCN(C)C)nc2C1=O` (centres unmarked) [Example 21, 2-{[2-(dimethylamino)ethyl]amino}-4-[(9-fluoro-10,11-dihydro-5H-benzo[4,5]cyclohepta[1,2-b]pyridin-5-yl)amino]-6-isopropyl-5,6-dihydro-7H-pyrrolo[3,4-d]pyrimidin-7-one], the IC50 came to 140 nM. In the case of `CC(C)N1Cc2c(NC3c4cc(F)ccc4CCc4ncccc43)nc(NCCN(C)C)nc2C1=O` (centres unmarked) [Example 22, 2-{[2-(dimethylamino)ethyl]amino}-4-[(7-fluoro-10,11-dihydro-5H-benzo[4,5]cyclohepta[1,2-b]pyridin-5-yl)amino]-6-isopropyl-5,6-dihydro-7H-pyrrolo[3,4-d]pyrimidin-7-one], the half-maximal inhibitory concentration (IC50) amounted to 270 nM.

In general, IC50 refers to the midpoint of a concentration-inhibition curve.

These data come from US20090099195A1 (ASTRAZENECA AB, priority 2007, published 2009).
